Test results published in ChEMBL document CHEMBL3991601, “The target landscape of clinical kinase drugs” (Science, 2017).
Activity calls are given as the source filed them.

Experiments:
[1] = target: T1, Peroxisomal acyl-coenzyme A oxidase 3 (Homo sapiens, UniProt O15254)
T1 sequence (O15254 whole entry): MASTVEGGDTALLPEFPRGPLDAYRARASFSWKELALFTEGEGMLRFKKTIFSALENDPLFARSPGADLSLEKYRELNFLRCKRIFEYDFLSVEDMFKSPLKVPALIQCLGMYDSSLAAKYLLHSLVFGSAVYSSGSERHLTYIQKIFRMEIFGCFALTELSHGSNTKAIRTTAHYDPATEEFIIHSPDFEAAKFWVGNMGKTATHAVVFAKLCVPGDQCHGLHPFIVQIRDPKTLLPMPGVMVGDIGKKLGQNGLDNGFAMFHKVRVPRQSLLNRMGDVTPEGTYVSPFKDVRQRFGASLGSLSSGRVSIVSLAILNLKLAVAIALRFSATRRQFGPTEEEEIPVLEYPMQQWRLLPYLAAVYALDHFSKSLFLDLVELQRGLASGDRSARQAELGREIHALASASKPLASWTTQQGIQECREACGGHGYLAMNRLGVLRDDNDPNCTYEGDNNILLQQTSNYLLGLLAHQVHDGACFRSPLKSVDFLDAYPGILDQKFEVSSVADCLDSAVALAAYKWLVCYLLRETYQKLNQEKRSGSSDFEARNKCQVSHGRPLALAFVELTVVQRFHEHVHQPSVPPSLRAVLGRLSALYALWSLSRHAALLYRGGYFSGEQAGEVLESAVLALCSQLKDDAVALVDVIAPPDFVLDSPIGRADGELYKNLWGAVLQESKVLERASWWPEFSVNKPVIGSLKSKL

[2] = target: T2, Cytochrome c1, heme protein, mitochondrial (Homo sapiens, UniProt P08574)
T2 sequence (P08574 whole entry): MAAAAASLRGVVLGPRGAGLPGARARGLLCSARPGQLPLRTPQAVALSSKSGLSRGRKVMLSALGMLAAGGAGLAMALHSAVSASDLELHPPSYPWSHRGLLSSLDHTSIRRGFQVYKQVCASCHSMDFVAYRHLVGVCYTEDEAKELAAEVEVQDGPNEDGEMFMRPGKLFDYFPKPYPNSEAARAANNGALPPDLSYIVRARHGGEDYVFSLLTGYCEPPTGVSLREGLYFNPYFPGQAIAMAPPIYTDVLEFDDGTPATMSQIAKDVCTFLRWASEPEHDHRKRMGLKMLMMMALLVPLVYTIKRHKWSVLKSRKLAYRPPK

Ephrin type-B receptor 6 = target: T3, Ephrin type-B receptor 6 (Homo sapiens, UniProt O15197)
T3 sequence (O15197 whole entry): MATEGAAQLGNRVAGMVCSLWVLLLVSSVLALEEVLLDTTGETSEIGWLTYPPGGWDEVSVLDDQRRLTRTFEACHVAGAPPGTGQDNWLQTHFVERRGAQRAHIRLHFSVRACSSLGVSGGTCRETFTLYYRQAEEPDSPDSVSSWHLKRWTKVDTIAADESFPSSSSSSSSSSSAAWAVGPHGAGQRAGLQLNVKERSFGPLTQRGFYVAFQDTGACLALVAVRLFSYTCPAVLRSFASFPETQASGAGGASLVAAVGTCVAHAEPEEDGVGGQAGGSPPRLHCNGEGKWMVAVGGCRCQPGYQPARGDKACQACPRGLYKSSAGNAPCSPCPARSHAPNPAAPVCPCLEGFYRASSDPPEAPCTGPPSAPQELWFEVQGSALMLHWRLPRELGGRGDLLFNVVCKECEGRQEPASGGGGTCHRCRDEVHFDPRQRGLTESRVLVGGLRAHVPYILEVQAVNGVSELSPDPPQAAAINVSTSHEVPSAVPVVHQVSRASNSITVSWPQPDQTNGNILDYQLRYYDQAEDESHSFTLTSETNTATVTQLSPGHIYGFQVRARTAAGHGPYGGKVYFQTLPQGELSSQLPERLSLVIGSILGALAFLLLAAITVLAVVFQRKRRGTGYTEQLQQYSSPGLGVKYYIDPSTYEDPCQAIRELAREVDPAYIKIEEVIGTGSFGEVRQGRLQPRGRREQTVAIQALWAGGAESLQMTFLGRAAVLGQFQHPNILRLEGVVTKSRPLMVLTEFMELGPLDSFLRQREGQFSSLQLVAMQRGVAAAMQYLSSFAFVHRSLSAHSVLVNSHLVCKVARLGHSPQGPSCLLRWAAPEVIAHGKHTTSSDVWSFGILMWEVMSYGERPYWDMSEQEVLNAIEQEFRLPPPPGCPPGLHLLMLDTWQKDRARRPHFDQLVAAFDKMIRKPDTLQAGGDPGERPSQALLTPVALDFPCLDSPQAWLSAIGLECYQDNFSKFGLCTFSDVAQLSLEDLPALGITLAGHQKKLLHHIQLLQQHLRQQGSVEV

[3] = target: T4, Mitogen-activated protein kinase kinase kinase 2 (Homo sapiens, UniProt Q9Y2U5)
T4 sequence (Q9Y2U5 whole entry): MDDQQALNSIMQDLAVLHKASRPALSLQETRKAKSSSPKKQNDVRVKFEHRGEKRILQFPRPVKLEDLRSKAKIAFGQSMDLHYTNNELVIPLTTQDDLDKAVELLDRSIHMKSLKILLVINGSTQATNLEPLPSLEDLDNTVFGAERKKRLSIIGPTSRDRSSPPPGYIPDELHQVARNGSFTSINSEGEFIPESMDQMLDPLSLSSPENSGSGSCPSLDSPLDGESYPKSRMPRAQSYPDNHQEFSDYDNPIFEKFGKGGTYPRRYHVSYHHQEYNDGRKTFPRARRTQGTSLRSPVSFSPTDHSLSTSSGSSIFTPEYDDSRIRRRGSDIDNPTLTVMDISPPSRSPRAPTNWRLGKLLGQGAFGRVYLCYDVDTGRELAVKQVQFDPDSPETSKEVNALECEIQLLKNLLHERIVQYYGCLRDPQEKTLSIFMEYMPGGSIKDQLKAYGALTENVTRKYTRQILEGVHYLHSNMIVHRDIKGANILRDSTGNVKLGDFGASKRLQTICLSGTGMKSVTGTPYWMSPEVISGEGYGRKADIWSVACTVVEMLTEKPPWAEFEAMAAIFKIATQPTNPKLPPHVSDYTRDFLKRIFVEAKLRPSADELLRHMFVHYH

[4] = target: Mitogen-activated protein kinase kinase kinase 4 (Homo sapiens, UniProt Q9Y6R4)
Sequence of Mitogen-activated protein kinase kinase kinase 4 (Q9Y6R4 whole entry): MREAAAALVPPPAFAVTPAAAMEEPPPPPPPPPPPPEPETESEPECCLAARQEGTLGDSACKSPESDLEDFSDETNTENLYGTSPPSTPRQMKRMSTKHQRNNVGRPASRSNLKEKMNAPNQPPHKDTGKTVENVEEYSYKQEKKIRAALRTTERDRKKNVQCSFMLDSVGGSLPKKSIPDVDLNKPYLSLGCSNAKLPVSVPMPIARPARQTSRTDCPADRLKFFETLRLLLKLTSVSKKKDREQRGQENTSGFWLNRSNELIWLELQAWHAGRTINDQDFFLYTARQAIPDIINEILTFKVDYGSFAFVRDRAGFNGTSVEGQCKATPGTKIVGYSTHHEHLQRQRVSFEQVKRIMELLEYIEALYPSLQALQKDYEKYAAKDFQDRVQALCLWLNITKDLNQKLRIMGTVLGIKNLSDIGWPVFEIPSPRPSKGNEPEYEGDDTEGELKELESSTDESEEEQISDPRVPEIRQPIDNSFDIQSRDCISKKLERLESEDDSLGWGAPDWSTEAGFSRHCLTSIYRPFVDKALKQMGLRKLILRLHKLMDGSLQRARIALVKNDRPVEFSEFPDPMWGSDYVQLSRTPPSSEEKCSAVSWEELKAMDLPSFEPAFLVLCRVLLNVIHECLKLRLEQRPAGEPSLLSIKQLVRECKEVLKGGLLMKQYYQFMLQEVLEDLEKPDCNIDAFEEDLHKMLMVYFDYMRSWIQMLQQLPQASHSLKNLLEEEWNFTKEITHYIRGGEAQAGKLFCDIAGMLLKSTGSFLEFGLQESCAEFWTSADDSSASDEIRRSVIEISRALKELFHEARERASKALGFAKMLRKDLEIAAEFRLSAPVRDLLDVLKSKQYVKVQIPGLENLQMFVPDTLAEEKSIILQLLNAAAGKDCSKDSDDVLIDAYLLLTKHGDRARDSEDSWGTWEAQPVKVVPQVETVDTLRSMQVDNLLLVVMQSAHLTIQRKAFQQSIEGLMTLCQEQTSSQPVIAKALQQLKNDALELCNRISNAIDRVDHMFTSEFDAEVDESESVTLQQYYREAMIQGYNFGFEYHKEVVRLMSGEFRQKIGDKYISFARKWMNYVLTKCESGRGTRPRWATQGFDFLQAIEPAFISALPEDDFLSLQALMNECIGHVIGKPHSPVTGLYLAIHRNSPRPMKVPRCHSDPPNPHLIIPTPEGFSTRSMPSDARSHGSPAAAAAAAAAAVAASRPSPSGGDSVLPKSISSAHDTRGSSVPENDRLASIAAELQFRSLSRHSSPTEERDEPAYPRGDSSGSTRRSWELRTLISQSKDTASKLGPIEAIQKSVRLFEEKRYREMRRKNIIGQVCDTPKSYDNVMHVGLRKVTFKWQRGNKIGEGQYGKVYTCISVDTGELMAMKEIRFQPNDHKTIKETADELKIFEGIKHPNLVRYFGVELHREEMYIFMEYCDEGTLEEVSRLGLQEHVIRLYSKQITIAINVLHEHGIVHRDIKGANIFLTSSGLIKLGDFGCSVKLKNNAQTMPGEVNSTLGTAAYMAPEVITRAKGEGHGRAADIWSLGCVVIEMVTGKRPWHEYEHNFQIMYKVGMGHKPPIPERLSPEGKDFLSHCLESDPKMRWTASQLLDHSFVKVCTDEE

[5] = target: Mitogen-activated protein kinase 1 (Homo sapiens, UniProt P28482)
Sequence of Mitogen-activated protein kinase 1 (P28482 whole entry): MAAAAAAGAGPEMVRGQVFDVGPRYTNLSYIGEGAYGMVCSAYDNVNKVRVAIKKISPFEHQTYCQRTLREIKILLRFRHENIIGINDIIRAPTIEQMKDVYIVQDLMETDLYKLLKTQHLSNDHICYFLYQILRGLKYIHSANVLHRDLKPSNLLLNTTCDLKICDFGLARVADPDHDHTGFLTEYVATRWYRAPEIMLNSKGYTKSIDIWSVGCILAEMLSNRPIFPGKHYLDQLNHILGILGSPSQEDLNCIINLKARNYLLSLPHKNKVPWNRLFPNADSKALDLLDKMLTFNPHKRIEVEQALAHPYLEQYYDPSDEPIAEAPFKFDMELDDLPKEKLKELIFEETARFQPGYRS

[6] = target: Ribosomal protein S6 kinase alpha-5 (Homo sapiens, UniProt O75582)
Sequence of Ribosomal protein S6 kinase alpha-5 (O75582 whole entry): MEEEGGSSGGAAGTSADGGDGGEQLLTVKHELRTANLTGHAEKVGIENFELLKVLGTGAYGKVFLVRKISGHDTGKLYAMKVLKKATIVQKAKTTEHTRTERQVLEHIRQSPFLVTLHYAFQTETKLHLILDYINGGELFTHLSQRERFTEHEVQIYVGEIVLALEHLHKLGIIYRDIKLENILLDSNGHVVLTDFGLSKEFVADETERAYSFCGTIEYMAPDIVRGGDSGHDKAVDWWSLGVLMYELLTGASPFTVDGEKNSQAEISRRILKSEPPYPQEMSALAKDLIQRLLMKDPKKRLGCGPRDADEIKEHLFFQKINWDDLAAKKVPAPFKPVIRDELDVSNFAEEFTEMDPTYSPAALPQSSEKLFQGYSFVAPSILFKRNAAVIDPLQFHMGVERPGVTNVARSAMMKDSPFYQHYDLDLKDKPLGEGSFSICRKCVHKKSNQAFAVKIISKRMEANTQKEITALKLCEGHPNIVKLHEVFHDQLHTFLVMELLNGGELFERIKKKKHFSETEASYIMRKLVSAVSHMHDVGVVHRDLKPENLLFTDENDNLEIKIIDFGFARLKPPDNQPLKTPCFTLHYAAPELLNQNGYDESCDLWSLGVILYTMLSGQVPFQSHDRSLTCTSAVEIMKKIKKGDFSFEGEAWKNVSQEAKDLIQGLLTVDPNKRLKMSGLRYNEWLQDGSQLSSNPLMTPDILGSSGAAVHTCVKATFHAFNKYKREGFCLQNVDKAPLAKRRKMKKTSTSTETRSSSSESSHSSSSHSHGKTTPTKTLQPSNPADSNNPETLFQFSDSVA

[7] = target: Non-receptor tyrosine-protein kinase TYK2 (Homo sapiens, UniProt P29597)
Sequence of Non-receptor tyrosine-protein kinase TYK2 (P29597 whole entry): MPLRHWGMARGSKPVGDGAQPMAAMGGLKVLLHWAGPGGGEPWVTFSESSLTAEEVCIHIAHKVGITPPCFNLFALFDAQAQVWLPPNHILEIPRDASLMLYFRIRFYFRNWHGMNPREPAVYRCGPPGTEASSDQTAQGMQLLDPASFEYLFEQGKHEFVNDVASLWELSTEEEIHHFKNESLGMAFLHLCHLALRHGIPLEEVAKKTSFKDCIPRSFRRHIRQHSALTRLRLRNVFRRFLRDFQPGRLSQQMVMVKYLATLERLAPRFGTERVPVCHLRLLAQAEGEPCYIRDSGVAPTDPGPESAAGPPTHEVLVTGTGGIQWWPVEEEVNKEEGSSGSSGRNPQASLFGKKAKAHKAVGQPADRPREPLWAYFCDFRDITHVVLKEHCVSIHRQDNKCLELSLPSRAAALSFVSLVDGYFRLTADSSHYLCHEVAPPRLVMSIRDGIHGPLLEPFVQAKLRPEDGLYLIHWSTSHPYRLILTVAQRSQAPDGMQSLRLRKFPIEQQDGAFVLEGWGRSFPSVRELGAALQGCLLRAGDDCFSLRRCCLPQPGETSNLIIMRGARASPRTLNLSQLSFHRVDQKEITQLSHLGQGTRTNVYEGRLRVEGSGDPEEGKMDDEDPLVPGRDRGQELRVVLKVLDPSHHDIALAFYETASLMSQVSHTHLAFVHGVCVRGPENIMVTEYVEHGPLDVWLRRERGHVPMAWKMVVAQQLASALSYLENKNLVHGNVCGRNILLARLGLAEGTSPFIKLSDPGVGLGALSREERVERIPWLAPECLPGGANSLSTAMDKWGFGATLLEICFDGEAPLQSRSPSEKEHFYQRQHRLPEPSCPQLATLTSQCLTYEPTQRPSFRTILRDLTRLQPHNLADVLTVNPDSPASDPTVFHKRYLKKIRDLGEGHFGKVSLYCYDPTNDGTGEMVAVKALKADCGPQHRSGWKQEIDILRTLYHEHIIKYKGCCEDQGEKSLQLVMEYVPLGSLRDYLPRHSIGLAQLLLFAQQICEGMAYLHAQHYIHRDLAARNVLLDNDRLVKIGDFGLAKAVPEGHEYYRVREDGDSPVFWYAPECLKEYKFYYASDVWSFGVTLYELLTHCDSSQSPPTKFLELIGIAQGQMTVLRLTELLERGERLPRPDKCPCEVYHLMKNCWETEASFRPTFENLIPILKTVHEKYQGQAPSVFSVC

Measured: Kd
Note: in the data inactive means no Kd found up to 30 µM.

CN1C/C=C/CCOc2cccc(c2)-c2ccnc(n2)Nc2cccc(c2)C1 [ZOTIRACICLIB]
inactive: [1] > 30 µM | [2] > 30 µM | Ephrin type-B receptor 6 > 30 µM | [3] > 30 µM | [4] > 30 µM | [5] > 30 µM | [6] > 30 µM | [7] > 30 µM
